Measurements from the supplement of paper PMC10307832.

Legend:
Assay in all cases: relative viability (nuclei count vs DMSO), 5 days (fraction); higher = more cells survive
Hydroxychloroquine = compound: CCN(CCO)CCCC(C)Nc1ccnc2cc(Cl)ccc12 [Hydroxychloroquine]
Summary of the method: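 Lung cancer cell lines in 1536-well plates were kept overnight at 37 °C, then pinned with five library-drug doses (not always all listed) spaced by √10 on vehicle-anchored plates. After 5 days without medium change, cells were fixed, permeabilised and Hoechst-stained in one step, imaged at 4×, and nuclei were counted with MetaXpress. Viability is treated-well nuclei divided by vehicle-well nuclei, taken as the median over plates. Plates passed only with control CV below 25% and at least one doubling.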

[1] = compound: CCN(CCO)CCCC(C)Nc1ccnc2cc(Cl)ccc12 [Hydroxychloroquine] + CCNC(=O)c1noc(-c2cc(C(C)C)c(O)cc2O)c1-c1ccc(CN2CCOCC2)cc1 [Luminespib] (partner 0.01 µM)
Summary of the method: (§1)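 Nuclei were stained with Hoechst during a one-step fixation (final 0.05% Triton X-100, 1% formaldehyde, 1 ug/ml Hoechst) carried out 5 days after dosing, then counted on 4× images. The cells, lung cancer lines in 1536-well plates, had been dosed by pin tool the day after seeding with one drug alone or a fixed anchor-drug dose plus five library-drug doses (not always all listed) in √10 steps. Relative viability is the nuclei count in treated wells divided by that in vehicle wells, and each value is the median of duplicate plates.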

[2] = compound: CCN(CCO)CCCC(C)Nc1ccnc2cc(Cl)ccc12 [Hydroxychloroquine] + COc1cc2c(Oc3ccc(NC(=O)C4(C(=O)Nc5ccc(F)cc5)CC4)cc3F)ccnc2cc1OCCCN1CCOCC1 [Foretinib] (partner 0.25 µM)
Summary of the method: as §1

[3] = compound: CCN(CCO)CCCC(C)Nc1ccnc2cc(Cl)ccc12 [Hydroxychloroquine] + COc1cccc2cc(-c3nc([C@H]4CC[C@H](C(=O)O)CC4)n4ncnc(N)c34)[nH]c12 [OSI-027] (partner 0.5 µM)
Summary of the method: as §1

[4] = compound: CCN(CCO)CCCC(C)Nc1ccnc2cc(Cl)ccc12 [Hydroxychloroquine] + Cc1cc(Nc2cc(N3CCN(C)CC3)nc(Sc3ccc(NC(=O)C4CC4)cc3)n2)n[nH]1 [Tozasertib] (partner 0.1 µM)
Summary of the method: as §1

[5] = compound: CCN(CCO)CCCC(C)Nc1ccnc2cc(Cl)ccc12 [Hydroxychloroquine] + Cc1nc(Nc2ncc(C(=O)Nc3c(C)cccc3Cl)s2)cc(N2CCN(CCO)CC2)n1 [Dasatinib] (partner 0.075 µM)
Summary of the method: as §1

[6] = compound: CCN(CCO)CCCC(C)Nc1ccnc2cc(Cl)ccc12 [Hydroxychloroquine] + N=C(N)NC(=N)NCCc1ccccc1 [Phenformin] (partner 250 µM)
Summary of the method: as §1

[7] = compound: CCN(CCO)CCCC(C)Nc1ccnc2cc(Cl)ccc12 [Hydroxychloroquine] + CC(=O)Nc1cccc(-n2c(=O)n(C3CC3)c(=O)c3c(Nc4ccc(I)cc4F)n(C)c(=O)c(C)c32)c1 [Trametinib] (partner 0.02 µM)
Summary of the method: as §1

[8] = compound: CCN(CCO)CCCC(C)Nc1ccnc2cc(Cl)ccc12 [Hydroxychloroquine] + CC(=O)c1c(C)c2cnc(Nc3ccc(N4CCNCC4)cn3)nc2n(C2CCCC2)c1=O [Palbociclib] (partner 0.5 µM)
Summary of the method: as §1

[9] = compound: CCN(CCO)CCCC(C)Nc1ccnc2cc(Cl)ccc12 [Hydroxychloroquine] + NC(=O)Nc1cc(-c2cccc(F)c2)sc1C(=O)N[C@H]1CCCNC1 [AZD7762] (partner 0.2 µM)
Summary of the method: as §1

[10] = compound: CCN(CCO)CCCC(C)Nc1ccnc2cc(Cl)ccc12 [Hydroxychloroquine] + Nc1nc2[nH]cc(CCc3ccc(C(=O)N[C@@H](CCC(=O)O)C(=O)O)cc3)c2c(=O)[nH]1 [Pemetrexed] (partner 0.2 µM)
Summary of the method: as §1

[11] = compound: CCN(CCO)CCCC(C)Nc1ccnc2cc(Cl)ccc12 [Hydroxychloroquine] + Nc1ncn([C@H]2C[C@H](O)[C@@H](CO)O2)c(=O)n1 [Decitabine] (partner 2 µM)
Summary of the method: as §1

[12] = compound: CCN(CCO)CCCC(C)Nc1ccnc2cc(Cl)ccc12 [Hydroxychloroquine] + O=C(CCCCCCC(=O)Nc1ccccc1)NO [Vorinostat] (partner 1 µM)
Summary of the method: as §1

[13] = compound: CCN(CCO)CCCC(C)Nc1ccnc2cc(Cl)ccc12 [Hydroxychloroquine] + O=C(c1cc(Cc2n[nH]c(=O)c3ccccc23)ccc1F)N1CCN(C(=O)C2CC2)CC1 [Olaparib] (partner 8 µM)
Summary of the method: as §1

NCI-H1623
relative viability (Hydroxychloroquine; 0.5 µM): 0.88
relative viability (Hydroxychloroquine; 1.581 µM): 0.959
relative viability (Hydroxychloroquine; 5 µM): 0.941
relative viability (Hydroxychloroquine; 15.81 µM): 0.943
relative viability (Hydroxychloroquine; 50 µM): 0.992
relative viability ([1]; first compound 0.5 µM): 0.431
relative viability ([1]; first compound 1.581 µM): 0.409
relative viability ([1]; first compound 5 µM): 0.496
relative viability ([1]; first compound 15.81 µM): 0.74
relative viability ([1]; first compound 50 µM): 0.537
relative viability ([2]; first compound 0.5 µM): 0.823
relative viability ([2]; first compound 1.581 µM): 0.842
relative viability ([2]; first compound 5 µM): 0.88
relative viability ([2]; first compound 15.81 µM): 0.937
relative viability ([2]; first compound 50 µM): 0.82
relative viability ([3]; first compound 0.5 µM): 0.411
relative viability ([3]; first compound 1.581 µM): 0.406
relative viability ([3]; first compound 5 µM): 0.449
relative viability ([3]; first compound 15.81 µM): 0.418
relative viability ([3]; first compound 50 µM): 0.439
relative viability ([4]; first compound 0.5 µM): 0.392
relative viability ([4]; first compound 1.581 µM): 0.405
relative viability ([4]; first compound 5 µM): 0.406
relative viability ([4]; first compound 15.81 µM): 0.526
relative viability ([4]; first compound 50 µM): 0.488
relative viability ([5]; first compound 0.5 µM): 0.554
relative viability ([5]; first compound 1.581 µM): 0.485
relative viability ([5]; first compound 5 µM): 0.51
relative viability ([5]; first compound 15.81 µM): 0.547
relative viability ([5]; first compound 50 µM): 0.52
relative viability ([6]; first compound 0.5 µM): 0.544
relative viability ([6]; first compound 1.581 µM): 0.565
relative viability ([6]; first compound 5 µM): 0.578
relative viability ([6]; first compound 15.81 µM): 0.606
relative viability ([6]; first compound 50 µM): 0.588

SW 900
relative viability (Hydroxychloroquine; 0.5 µM): 0.879
relative viability (Hydroxychloroquine; 1.581 µM): 0.729
relative viability (Hydroxychloroquine; 5 µM): 0.837
relative viability (Hydroxychloroquine; 15.81 µM): 0.717
relative viability (Hydroxychloroquine; 50 µM): 0.889
relative viability ([7]; first compound 0.5 µM): 0.761
relative viability ([7]; first compound 1.581 µM): 1.01
relative viability ([7]; first compound 5 µM): 0.779
relative viability ([7]; first compound 15.81 µM): 0.879
relative viability ([7]; first compound 50 µM): 0.806
relative viability ([8]; first compound 0.5 µM): 0.5
relative viability ([8]; first compound 1.581 µM): 0.502
relative viability ([8]; first compound 5 µM): 0.568
relative viability ([8]; first compound 15.81 µM): 0.597
relative viability ([8]; first compound 50 µM): 0.657
relative viability ([1]; first compound 0.5 µM): 0.156
relative viability ([1]; first compound 1.581 µM): 0.176
relative viability ([1]; first compound 5 µM): 0.195
relative viability ([1]; first compound 15.81 µM): 0.17
relative viability ([1]; first compound 50 µM): 0.177
relative viability ([2]; first compound 0.5 µM): 0.941
relative viability ([2]; first compound 1.581 µM): 0.824
relative viability ([2]; first compound 5 µM): 0.866
relative viability ([2]; first compound 15.81 µM): 0.816
relative viability ([2]; first compound 50 µM): 0.869
relative viability ([3]; first compound 0.5 µM): 0.491
relative viability ([3]; first compound 1.581 µM): 0.664
relative viability ([3]; first compound 5 µM): 0.482
relative viability ([3]; first compound 15.81 µM): 0.547
relative viability ([3]; first compound 50 µM): 0.505
relative viability ([4]; first compound 0.5 µM): 0.517
relative viability ([4]; first compound 1.581 µM): 0.531
relative viability ([4]; first compound 5 µM): 0.548
relative viability ([4]; first compound 15.81 µM): 0.74
relative viability ([4]; first compound 50 µM): 0.572
relative viability ([5]; first compound 0.5 µM): 0.586
relative viability ([5]; first compound 1.581 µM): 0.574
relative viability ([5]; first compound 5 µM): 0.671
relative viability ([5]; first compound 15.81 µM): 0.528
relative viability ([5]; first compound 50 µM): 0.559
relative viability ([6]; first compound 0.5 µM): 0.514
relative viability ([6]; first compound 1.581 µM): 0.496
relative viability ([6]; first compound 5 µM): 0.509
relative viability ([6]; first compound 15.81 µM): 0.585
relative viability ([6]; first compound 50 µM): 0.513
relative viability ([9]; first compound 0.5 µM): 0.678
relative viability ([9]; first compound 1.581 µM): 0.681
relative viability ([9]; first compound 5 µM): 0.679
relative viability ([9]; first compound 15.81 µM): 0.748
relative viability ([9]; first compound 50 µM): 0.594
relative viability ([10]; first compound 0.5 µM): 0.43
relative viability ([10]; first compound 1.581 µM): 0.47
relative viability ([10]; first compound 5 µM): 0.448
relative viability ([10]; first compound 15.81 µM): 0.457
relative viability ([10]; first compound 50 µM): 0.444
relative viability ([11]; first compound 0.5 µM): 0.398
relative viability ([11]; first compound 1.581 µM): 0.445
relative viability ([11]; first compound 5 µM): 0.422
relative viability ([11]; first compound 15.81 µM): 0.417
relative viability ([11]; first compound 50 µM): 0.41
relative viability ([12]; first compound 0.5 µM): 0.532
relative viability ([12]; first compound 1.581 µM): 0.535
relative viability ([12]; first compound 5 µM): 0.504
relative viability ([12]; first compound 15.81 µM): 0.382
relative viability ([12]; first compound 50 µM): 0.505
relative viability ([13]; first compound 0.5 µM): 0.894
relative viability ([13]; first compound 1.581 µM): 0.852
relative viability ([13]; first compound 5 µM): 0.88
relative viability ([13]; first compound 15.81 µM): 0.819
relative viability ([13]; first compound 50 µM): 0.75
